What all share (format): biochemical
The target in assay [1] is T1, recombinant human VAP-1 (Homo sapiens, UniProt Q16853).
T1 construct: purchased R&D systems
T1 sequence (Q16853 1-763): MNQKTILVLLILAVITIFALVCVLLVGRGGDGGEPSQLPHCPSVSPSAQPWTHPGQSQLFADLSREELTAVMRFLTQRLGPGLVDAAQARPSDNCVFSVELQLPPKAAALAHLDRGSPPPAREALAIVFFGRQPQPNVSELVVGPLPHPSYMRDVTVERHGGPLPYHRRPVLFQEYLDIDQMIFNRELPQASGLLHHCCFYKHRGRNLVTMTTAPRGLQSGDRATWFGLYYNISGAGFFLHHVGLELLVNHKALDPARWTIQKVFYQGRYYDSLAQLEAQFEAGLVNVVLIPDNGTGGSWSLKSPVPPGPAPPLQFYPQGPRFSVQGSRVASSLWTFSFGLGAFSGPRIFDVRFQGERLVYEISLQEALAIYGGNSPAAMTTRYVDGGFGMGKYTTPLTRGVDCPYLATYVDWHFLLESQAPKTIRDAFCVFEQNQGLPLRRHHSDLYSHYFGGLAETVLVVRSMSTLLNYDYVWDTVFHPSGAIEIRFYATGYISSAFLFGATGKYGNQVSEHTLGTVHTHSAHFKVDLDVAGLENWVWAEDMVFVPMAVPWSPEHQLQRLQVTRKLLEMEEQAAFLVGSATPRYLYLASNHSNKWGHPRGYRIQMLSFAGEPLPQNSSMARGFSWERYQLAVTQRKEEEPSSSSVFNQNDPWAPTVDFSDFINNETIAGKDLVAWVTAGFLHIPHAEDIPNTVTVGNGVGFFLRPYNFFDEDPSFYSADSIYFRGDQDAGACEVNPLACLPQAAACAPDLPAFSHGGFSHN
In words: Activity on recombinant human VAP-1, Amplex Red HRP-coupled hydrogen peroxide assay, benzylamine substrate. The settings on record: recombinant human VAP-1, benzylamine substrate, read-out: Inhibitory Activity (IC50, nM) human VAP-1. In short, it runs like this: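 H2O2 generation from 1 mM benzylamine was coupled via 1 U/mL HRP to 200 uM Amplex Red; inhibitors, serially diluted 1:3 over 8 points with under 1% final DMSO, had been preincubated 30 min at 37 °C. IC50 from percentage drop in rate.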

In assay [2] the target is T2, recombinant human MAO-A (monoamine oxidase-A) (Homo sapiens, UniProt P21397).
T2 construct: purchased Sigma-Aldrich
T2 sequence (P21397 1-527): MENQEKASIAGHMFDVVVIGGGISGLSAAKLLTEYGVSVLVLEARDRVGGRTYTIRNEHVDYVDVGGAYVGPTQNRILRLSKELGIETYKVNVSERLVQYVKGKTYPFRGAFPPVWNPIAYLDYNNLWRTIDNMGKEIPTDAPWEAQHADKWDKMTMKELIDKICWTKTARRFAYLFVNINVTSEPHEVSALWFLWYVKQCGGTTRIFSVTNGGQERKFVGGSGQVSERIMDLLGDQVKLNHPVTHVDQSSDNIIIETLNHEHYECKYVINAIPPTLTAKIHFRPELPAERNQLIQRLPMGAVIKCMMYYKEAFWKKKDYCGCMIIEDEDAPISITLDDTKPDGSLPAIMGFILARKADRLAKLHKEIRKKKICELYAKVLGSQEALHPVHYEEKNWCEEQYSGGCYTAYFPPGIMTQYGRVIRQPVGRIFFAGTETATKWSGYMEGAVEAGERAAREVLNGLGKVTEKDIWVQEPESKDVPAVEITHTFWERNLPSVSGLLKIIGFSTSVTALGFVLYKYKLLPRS
In words: Activity on recombinant human MAO-A, Amplex Red method, 0.5 mM tyramine substrate. The settings on record: read-out: Inhibitory Activity (IC50, nM) MAO-A. In short, it runs like this:
(§1)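 First, serially diluted compounds were incubated with recombinant enzyme in 50 mM sodium phosphate, pH 7.4, for 30 min at 37° C. Next, Amplex Red (200 uM), HRP (1 U/mL) and tyramine (0.5 mM, MAO-A) or benzylamine (1 mM, MAO-B) were added. Then fluorescence was monitored over 1-2 h and IC50 fitted.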

Assay [3] addresses T3, recombinant human MAO-B (monoamine oxidase-B) (Homo sapiens, UniProt P27338).
T3 construct: purchased Sigma-Aldrich
T3 sequence (P27338 1-520): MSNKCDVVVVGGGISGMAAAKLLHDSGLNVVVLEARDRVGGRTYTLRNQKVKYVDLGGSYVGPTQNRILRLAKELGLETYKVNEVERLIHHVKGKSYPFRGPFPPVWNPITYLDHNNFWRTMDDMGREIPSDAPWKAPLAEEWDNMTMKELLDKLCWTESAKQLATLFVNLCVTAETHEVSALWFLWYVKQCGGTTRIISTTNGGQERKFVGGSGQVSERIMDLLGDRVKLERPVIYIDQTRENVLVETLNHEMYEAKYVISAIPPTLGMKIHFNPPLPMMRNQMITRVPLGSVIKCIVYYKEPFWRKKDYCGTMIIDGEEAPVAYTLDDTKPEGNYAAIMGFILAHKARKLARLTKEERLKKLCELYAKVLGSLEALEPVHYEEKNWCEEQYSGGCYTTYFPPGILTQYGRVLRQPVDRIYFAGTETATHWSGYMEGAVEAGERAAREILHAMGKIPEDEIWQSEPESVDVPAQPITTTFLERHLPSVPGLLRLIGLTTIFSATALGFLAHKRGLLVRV
The assay can be described thus: Activity on recombinant human MAO-B, Amplex Red method, 1 mM benzylamine substrate. The following applies: read-out: Inhibitory Activity (IC50, nM) MAO-B. In short, it runs like this: as §1

Assay [4] concerns the target T4, recombinant human DAO (diamine oxidase) (Homo sapiens, UniProt P19801).
T4 construct: purchased R&D systems
T4 sequence (P19801 20-751): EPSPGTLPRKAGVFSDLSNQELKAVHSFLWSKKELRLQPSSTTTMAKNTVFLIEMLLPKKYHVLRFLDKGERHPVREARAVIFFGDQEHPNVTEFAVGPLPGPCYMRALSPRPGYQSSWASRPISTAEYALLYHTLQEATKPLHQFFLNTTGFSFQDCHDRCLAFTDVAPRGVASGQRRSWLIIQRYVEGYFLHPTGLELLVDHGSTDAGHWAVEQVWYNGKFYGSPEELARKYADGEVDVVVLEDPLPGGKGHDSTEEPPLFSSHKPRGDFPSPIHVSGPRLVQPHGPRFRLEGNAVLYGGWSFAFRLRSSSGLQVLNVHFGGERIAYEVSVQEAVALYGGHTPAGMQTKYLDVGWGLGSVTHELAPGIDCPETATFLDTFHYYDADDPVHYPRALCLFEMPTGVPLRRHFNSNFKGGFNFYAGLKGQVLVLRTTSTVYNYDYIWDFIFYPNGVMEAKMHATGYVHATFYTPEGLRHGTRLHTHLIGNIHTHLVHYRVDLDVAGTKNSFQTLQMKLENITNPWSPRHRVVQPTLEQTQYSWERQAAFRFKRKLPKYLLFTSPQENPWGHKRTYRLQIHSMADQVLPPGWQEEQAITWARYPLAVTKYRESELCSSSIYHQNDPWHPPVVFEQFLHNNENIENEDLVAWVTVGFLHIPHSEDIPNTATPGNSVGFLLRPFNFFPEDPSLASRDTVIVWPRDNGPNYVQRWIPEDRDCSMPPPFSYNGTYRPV
The assay can be described thus: Activity on recombinant human DAO, Amplex Red method, 1 mM putrescine substrate. The following applies: recombinant human DAO, read-out: Inhibitory Activity (IC50, nM) DAO. The gist of the method: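 Inhibition of recombinant human DAO (diamine oxidase, R&D systems) was assessed with the Amplex Red Hydrogen Peroxide Assay Kit. Hydrogen peroxide produced from 1 mM putrescine was detected through an HRP-coupled reaction that converts Amplex Red into fluorescent resorufin, read at 544 nm excitation and 590 nm emission. IC50 values came from four-parameter logistic fits in GraphPad Prism.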

Where [5] appears, read: 1 mM putrescine, * = between 10 and 100 nM, ** = between 300 and 1000 nM.

Where a name gives a salt, the structure may show the parent alone. Read-outs that look alike come from different tables or passages of the source.

One may read the IC50 as the concentration that gives 50% inhibition. Turning to `Cc1cc(Br)cnc1-n1cnn(C/C(=C/F)CN)c1=O` [Example 32, 2-[(2E)-2-(aminomethyl)-3-fluoroprop-2-en-1-yl]-4-(5-bromo-3-methylpyridin-2-yl)-2,4-dihydro-3H-1,2,4-triazol-3-one hydrochloride], the IC50 is 2.2 nM in assay [1] (30 min preincubation at 37° C.), 93000 nM in assay [2] (0.5 mM tyramine), 51 nM in assay [3] (1 mM benzylamine) and more than 100000 nM in assay [4] (setting [5]).

As to `NC/C(=C\F)Cn1ncn(-c2cc(F)c(Br)c(F)c2)c1=O` [Example 20, 2-[(2E)-2-(aminomethyl)-3-fluoroprop-2-en-1-yl]-4-(4-bromo-3,5-difluorophenyl)-2,4-dihydro-3H-1,2,4-triazol-3-one hydrochloride], the IC50 was 2.2 nM in assay [1] (30 min preincubation at 37° C.), more than 100000 nM in assay [2] (0.5 mM tyramine), more than 10000 nM in assay [3] (1 mM benzylamine) and 15 nM in assay [4] (setting [5]).

For the compound `NC/C(=C/F)Cn1ncn(-c2cccc(-c3ccc(-c4nnc[nH]4)cc3)c2)c1=O` [Example 58, 2-[(2Z)-2-(aminomethyl)-3-fluoroprop-2-en-1-yl]-4-[4′-(4H-1,2,4-triazol-3-yl)biphenyl-3-yl]-2,4-dihydro-3H-1,2,4-triazol-3-one], the IC50 was 0.63 nM in assay [1] (30 min preincubation at 37° C.), more than 100000 nM in assay [2] (0.5 mM tyramine), more than 10000 nM in assay [3] (1 mM benzylamine) and less than 100 nM in assay [4] (setting [5]).

Turning to `NC/C(=C/F)Cn1ncn(-c2cccc(Br)c2)c1=O` [Example 3, 2-[(2Z)-2-(aminomethyl)-3-fluoroprop-2-en-1-yl]-4-(3-bromophenyl)-2,4-dihydro-3H-1,2,4-triazol-3-one hydrochloride], the IC50 is 2.5 nM in assay [1] (30 min preincubation at 37° C.), 3500 nM in assay [2] (0.5 mM tyramine), 121 nM in assay [3] (1 mM benzylamine) and 542 nM in assay [4] (setting [5]).

As for `NC/C(=C\F)Cn1ncn(-c2cccc(/C=C/c3ccsc3)n2)c1=O` [Example 237, 2-[(2E)-2-(aminomethyl)-3-fluoroprop-2-en-1-yl]-4-{6-[(E)-2-(thiophen-3-yl)ethenyl]pyridin-2-yl}-2,4-dihydro-3H-1,2,4-triazol-3-one], the IC50 is 2.4 nM in assay [1], 20000 nM in assay [2] (0.5 mM tyramine substrate), less than 100 nM in assay [3] (1 mM benzylamine substrate) and 170 nM in assay [4] (1 mM putrescine substrate).

Take `NC/C(=C\F)Cn1ncn(-c2cccc(-c3ccc4nonc4c3)n2)c1=O` [Example 195, 2-[(2E)-2-(aminomethyl)-3-fluoroprop-2-en-1-yl]-4-[6-(2,1,3-benzooxadiazol-5-yl)pyridin-2-yl]-2,4-dihydro-3H-1,2,4-triazol-3-one]: the IC50 in assay [1] was 0.66 nM; in assay [2] (0.5 mM tyramine substrate), more than 100000 nM; in assay [3] (1 mM benzylamine substrate), 620 nM; in assay [4] (1 mM putrescine substrate), less than 30 nM.

On to `CC(C)c1nc(-c2cccc(-c3cccc(-n4cnn(C/C(=C/F)CN)c4=O)c3)c2)no1` [Example 65, 2-[(2E)-2-(aminomethyl)-3-fluoroprop-2-en-1-yl]-4-{3′-[5-(propan-2-yl)-1,2,4-oxadiazol-3-yl]biphenyl-3-yl}-2,4-dihydro-3H-1,2,4-triazol-3-one hydrochloride], for which the IC50 is 0.93 nM in assay [1] (30 min preincubation at 37° C.), more than 100000 nM in assay [2] (0.5 mM tyramine), more than 10000 nM in assay [3] (1 mM benzylamine) and less than 30 nM in assay [4] (setting [5]).

As to `Cc1ccc(-c2cccc(-c3noc(C4CC4)n3)c2)nc1-n1cnn(C/C(=C/F)CN)c1=O` [Example 210, 2-[(2E)-2-(aminomethyl)-3-fluoroprop-2-en-1-yl]-4-{6-[3-(5-cyclopropyl-1,2,4-oxadiazol-3-yl)phenyl]-3-methylpyridin-2-yl}-2,4-dihydro-3H-1,2,4-triazol-3-one hydrochloride], the IC50 in assay [1] is 52 nM; in assay [2] (0.5 mM tyramine substrate), more than 100000 nM; in assay [3] (1 mM benzylamine substrate), more than 10000 nM; in assay [4] (1 mM putrescine substrate), 4400 nM.

Regarding `CN(C)c1ccc(-c2cccc(-n3cnn(C/C(=C/F)CN)c3=O)c2)cc1` [Example 51, 2-[(2E)-2-(aminomethyl)-3-fluoroprop-2-en-1-yl]-4-[4′-(dimethylamino)biphenyl-3-yl]-2,4-dihydro-3H-1,2,4-triazol-3-one hydrochloride], the IC50 is 2 nM in assay [1] (30 min preincubation at 37° C.), more than 100000 nM in assay [2] (0.5 mM tyramine), 5600 nM in assay [3] (1 mM benzylamine) and more than 10000 nM in assay [4] (setting [5]).

In the case of `CC(C)c1nc(-c2cccc(-c3cccc(-n4cnn(C/C(=C/F)CN)c4=O)n3)c2)no1` [Example 181, 2-[(2E)-2-(aminomethyl)-3-fluoroprop-2-en-1-yl]-4-(6-{3-[5-(propan-2-yl)-1,2,4-oxadiazol-3-yl]phenyl}pyridin-2-yl)-2,4-dihydro-3H-1,2,4-triazol-3-one], the IC50 in assay [1] was 1.9 nM; in assay [2] (0.5 mM tyramine substrate), more than 100000 nM; in assay [3] (1 mM benzylamine substrate), 880 nM; in assay [4] (1 mM putrescine substrate), 2.1 nM.

The values are drawn from patent US11492335B2, “Aryl or heteroaryl triazolone derivatives or salts thereof, or pharmaceutical compositions comprising the same” (YUHAN CORPORATION, priority 2018, dated 2022).
